Test results as given in patent publication US6979747B2, “Antioxidants, preparation processes and their uses” (Centre National de la Recherche Scientifique (CNRS), priority 1999, dated 2005).

Test system: HIV-1 LAI
Assay: Antiviral activity in quiescent or PHA-P activated PBMCs infected with HIV-1 LAI
Assay type: cell-based
Conditions: for decrease of viral replication: PBMCs activated by PHA-P
Experimental: For some experiments, the PBMCs and the PBLs are activated for 48 h with 1 μg/ml of a mitogen, PHA-P (Difco Laboratories). The PBMCs and the PBLs are cultured in medium A (quiescent) or B (activated). The cells are cultured at 37° C. in an atmosphere saturated with moisture under 5% of CO2. The culture supernatants are removed and the culture media are replaced every three or four days. At each renewal of the culture media, the cell viability is evaluated by coloring with trypan blue or by microscopic observation.
The MDMs were infected with the reference isolate with macrophage tropism, HIV-1/Ba-L. The PBMCs and the PBLs were infected with the reference isolate with lymphocyte tropism HIV-1 LAI. The viral stock were formed by amplifying these strains in vitro using umbilical blood mononucleated cells (UBM(s) preactivated with 1 μg/ml of PHA-P and cultured in medium A supplemented by 20 IU/ml of IL-2. In order to remove the soluble factors, such as cytokines, the culture supernatants were ultracentrifuged at 360 000 g for 5 min, and the pellets were resuspended in RPMI 1640. The viral stocks thus formed were subsequently titred using PBMCs activated with PHA-P. The TCID50s (50% Tissue Culture Infectious Dose) were calculated using the Kärber formula.
A million MDMs were infected with 10 000 TCID50s of the HIV-1/Ba-L strain. This amount of virus corresponds to a multiplicity of infection (m.o.i.) equal to 0.01. The excess of virus is removed 24 h after by washing with cells using RPMI 1640. The PBLs and the PBMCs were infected with 10 000 TCID50s of the HIV-1 LAI strain (moi=0.01). The cells were washed at the end of the second day of infection.
The viral replication is measured by assaying the RT activity in the culture supernatants according to the technique described by F. Rey et al. (Biochem. Biophys. Res. Comm., 1984, 121, 126-133). The radioactivity incorporated during the extension of the complementary strand of a poly-rA synthetic matrix in the presence of an oligo-dT12-18 primer and of a radiolabeled substrate, [^3H-methyl]thymidine-5′-triphosphate ([^3H]TPP), makes it possible to assay the enzymatic activity of RT. 400 μl of supernatant are ultracentrifuged at 360 000 g for 5 min. The RT is released by lysis of the viral pellet in 20 μl of NTE-Triton (100 mM NaCl, 10 mM Tris, 1 mM EDTA, 0.1% Triton X-100). These 20 μl are subsequently incubated with 40 μl of the following reaction mixture: 62.5 mM Tris, pH 7.8; 25 mM KCl; 6.25 mM MgCl2; 1.25 mM dithiothreitol (DTT); 2.5×10^−3 ODU oligo-dT12-18 and poly-rA, 5.55×10^−3 TBq {^3H]TTP. After one hour at 37° C., the enzymatic reaction is halted and the newly synthesized strands are precipitated for 20 min at 4° C. by the addition of 1 ml of sodium pyrophosphate (NaPP), of 50 μl of yeast DNA (0.1 mg/ml in 5% trichluoroacetic acid (TCA)), and of 4 ml of 20% TCA. The mixture is filtered using a cellulose acetate membrane (Millipore) which retains the radiolabeled poly-dT chains. The filter is washed using 20 ml of 5% TCA and the residual water is removed by addition of 25 μl of 70% ethanol. The filter is dried in an oven for 10 minutes at 80° C. and is then introduced into vials containing 8 ml of liquid scintillant. The β radioactivity is quantified by means of a scintillation counter (Packard Bell). The results are expressed in pM of [^3H]-TMP incorporated/h/ml of supernatant or, more simply, in cpm/h/ml.
The PBMCs, quiescent or activated by PHA-P, were infected by the reference strain with lymphocyte tropism HIV-1 LAI. All the culturings were carried out in parallel and the drugs were maintained throughout the culturing.

## CC(=O)N[C@@H](CS)C(=O)NCCSC(C)=O [I-152, N-(N-acetyl-L-cysteinyl)-S-acetylcysteamine]
Human immunodeficiency virus 1, PBMC, quiescent PBMCs, 125 μM, read-out: inhibition of viral replication
  inhibition at 125 µM: 88%
Human immunodeficiency virus 1, PBMC, quiescent PBMCs, 250 μM, read-out: inhibition of viral replication
  inhibition at 250 µM: 97%
125 μM
  decrease of viral replication: 25%
250 μM
  decrease of viral replication: 42%
